Test results taken from publication PMC3635668 (Analytical chemistry, 2013).
Like-named read-outs stand apart in the source and are kept apart here. Non-standard residues stand in square brackets, D forms with d. No end group written: not given here. Sta = CC(C)C[C@H](N)[C@@H](O)CC(=O)O

How the values were obtained:
[1] = biological target: BACE1 (Homo sapiens, UniProt P56817); experiment: SPR antibody-amplified BACE1 cleavage inhibition assay, immobilized APP; format: biochemical; settings: for BACE1 inhibition, two-channel screening (in words): 30 nM compound 1 (CH1) or 2 μM compound 2 (CH2), Figure 2B
Sequence of BACE1 (Homo sapiens, UniProt P56817) (P56817 46-501): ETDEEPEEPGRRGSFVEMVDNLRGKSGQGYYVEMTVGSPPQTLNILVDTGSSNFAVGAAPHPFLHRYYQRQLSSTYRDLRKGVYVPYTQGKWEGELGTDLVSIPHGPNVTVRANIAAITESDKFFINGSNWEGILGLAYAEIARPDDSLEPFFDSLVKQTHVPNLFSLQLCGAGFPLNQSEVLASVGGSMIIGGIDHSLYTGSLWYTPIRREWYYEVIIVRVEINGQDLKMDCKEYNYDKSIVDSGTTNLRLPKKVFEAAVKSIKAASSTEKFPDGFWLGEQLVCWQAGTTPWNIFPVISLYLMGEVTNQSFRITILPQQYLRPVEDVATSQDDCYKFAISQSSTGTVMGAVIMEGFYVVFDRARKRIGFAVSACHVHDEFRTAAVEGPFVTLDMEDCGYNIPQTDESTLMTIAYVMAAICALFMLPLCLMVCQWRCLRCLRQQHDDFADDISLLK

[2] = tested on: BACE1; settings: read-out: IC50 (ELISA); measured from ELISA; cited from earlier work
[3] = tested on: BACE1; settings: read-out: IC50 (MS); determined by MS; cited from earlier work
[4] = 10 nM BACE1, SA-coated PEG chip

## KTEEISEVN-Sta-VAEF (KTEEISEVN[Sta]VAEF) [Compound 1]
[1]; [4]
  BACE1 inhibition, two-channel screening (in words): exhibited inhibition of the BACE1 activity
[1]; 30 nM compound 1 vs 2 μM compound 2, Figure 2B
  relative potency compound 1 vs compound 2 (in words): much more potent inhibitor
[1]; 40 nM compound, 10 nM BACE1, SA-coated PEG chip, Figure 2A curve c
  BACE1 inhibition (in words): insufficient to completely halt the peptide cleavage by BACE1
[2]
  IC50: 30 nM

## Ph-LL-4,5-dehydro-L-CHO [Compound 2]
[3]
  IC50: 3000 nM
[1]; [4]
  BACE1 inhibition, two-channel screening (in words): exhibited inhibition of the BACE1 activity
[1]; 2 μM compound 2, 10 nM BACE1, Ni-NTA chip, Figure 4 cycle 4
  BACE1 inhibition (in words): partially inhibits BACE1
